From article PMC12915096, “AI‐Driven Acceleration of Fluorescence Probe Discovery” (Advanced Science, 2025)

Biological target: T1, tau aggregates in cleared P301S mice brain (Homo sapiens, UniProt P10636, P618S)
T1 construct: from tissue; host or cells: brain of 9-month-old P301S (PS19) tau transgenic mice, in vivo and ex vivo
Assay: 3D transparent brain imaging after tissue clearing
Assay type: in vivo
Details: transgenic mouse brains, ex vivo
Protocol: After two‐photon imaging, mice were anesthetized by isoflurane and were transcardially perfused with ice‐cold 1×PBS followed with ice‐cold 4% PFA solution. Brain was incubated in 4% PFA at 4°C with shaking overnight. The samples were then washed with 1×PBS for at least 2 h twice at room temperature. The clearing of the fixed samples was conducted with Nuohai enhanced tissue clearing kit (NH‐CR‐230701, Nuohai Life Science (Shanghai) Co., Ltd). Briefly, samples were immersed individually in 20 mL of solution A for 7–8 days (refreshing the solution every two days) with gentle shaking at 37°C. The sample was washed in 1×PBS for 6 h with gentle shaking at room temperature and the PBS refreshed every 2 h. Finally, the samples were RI matched for 3D imaging. 3D fluorescence imaging of the cleared tissues was conducted with a Nuohai LS 18 tiling light sheet microscope (Nuohai Life Science Co., Ltd). A 4‐tile tiling light sheet was used to illuminate the samples, and a 1 × 0.25 NA objective (Olympus MVPLAPO) was used to collect the fluorescence. The magnification of the microscope was set at 4×, and the spatial resolution was roughly 3.3 × 3.3 × 7 µm^3 at the selected imaging conditions. The collected images were processed with the LS 18 image combine software (Nuohai Life Science Co., Ltd) and rendered using Amira (Thermo Fisher Scientific, USA). […]

T1 sequence (P10636 1-412 isoform P10636-7 P272S): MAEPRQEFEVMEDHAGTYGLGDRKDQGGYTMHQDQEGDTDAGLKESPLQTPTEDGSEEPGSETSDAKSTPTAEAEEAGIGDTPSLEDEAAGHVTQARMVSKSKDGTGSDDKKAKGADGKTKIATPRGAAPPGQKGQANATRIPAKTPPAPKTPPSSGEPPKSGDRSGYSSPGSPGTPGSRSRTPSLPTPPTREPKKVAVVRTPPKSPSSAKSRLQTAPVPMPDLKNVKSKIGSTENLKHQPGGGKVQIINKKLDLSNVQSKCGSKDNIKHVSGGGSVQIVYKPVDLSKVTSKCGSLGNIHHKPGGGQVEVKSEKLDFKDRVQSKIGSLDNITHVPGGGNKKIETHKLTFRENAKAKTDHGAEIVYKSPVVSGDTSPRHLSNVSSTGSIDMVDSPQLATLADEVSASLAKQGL

Tau labeling signal after 8 days of tissue clearing: nearly abolished
Structure (SMILES): O=C(O)c1cc(/C=C/c2ccc(/C=C/c3ccc(O)c(C(=O)O)c3)c(F)c2)ccc1O [FSB]
